Source: patent US20200068890A1 (Person to Whom the Inventor is Obligated to Assign, priority 2017, published 2020)
“And” between values parts separate entries of the source, which are not always exact repeats. Equal values may be shown once. Read-outs that look alike come from different tables or passages of the source.

How the values were obtained:
[1] = tested on: Acinetobacter baumannii 17978; test: Broth microdilution MIC; assay type: cell-based
Protocol: (§1) Assays were carried out by a broth microdilution method using a 96-well plate according to guidelines defined by the European Committee on Antimicrobial Susceptibility Testing as described here. Overnight cultures of strains were grown in tryptic soy broth (TSB) at 37° C. The overnight cultures were diluted to a concentration of 1×10^6 bacteria/ml (OD600=0.01) in TSB media. To each well on 96 well plates, 100 μl of bacterially infected media at a concentration of 1×10^6/ml and compounds at various concentrations were added. An uninfected control (i.e. no bacteria) was also included. The plates were incubated at 37° C. wrapped in parafilm for 20 hrs. The growth was assessed by measuring the absorbance at 600 nm. The minimum inhibitory concentration (MIC) was determined to be the lowest concentration of compound that inhibits visible bacterial growth.

EMRSA-15 = test: Broth microdilution MIC; assay type: cell-based
Protocol: as §1

[2] = tested on: Enterococcus faecalis 12201; test: Broth microdilution MIC; assay type: cell-based
Protocol: as §1

[3] = tested on: Enterococcus faecium 12204; test: Broth microdilution MIC; assay type: cell-based
Protocol: as §1

[4] = tested on: Escherichia coli NCTC12923; test: Broth microdilution MIC; assay type: cell-based
Protocol: as §1

[5] = tested on: Pseudomonas aeruginosa PA01; test: Broth microdilution MIC; assay type: cell-based
Protocol: as §1

A. thaliana seedlings = test: In planta seedling development and root length on GM/MS media; assay type: in vivo; conditions: for Normalised root / Root Length: individual plants 1-20
Protocol: Gamborg modified/Murashige Skoog (GM/MS) media and soil were prepared as according to Table 6.
A. thaliana seeds were sterilised including a 15 min wash step in 10% (v/v) commercial bleach without the addition of detergents. All plants were grown in a controlled environment room (CER) at 22±5° C. with 16 hrs: 8 hrs light: dark, 50-60% humidity under cool-white fluorescent light. Plants grown on soil were regularly watered and relocated within the CER.
Basta was employed as a positive control at a final recommended concentration of 10 μg/mL (50 μM). Negative controls included 0% (v/v) DMSO (H2O) and 1% (v/v) DMSO (vehicle). Media was poured into 100 mL plates and allowed to set before adding 20 sterilised seeds per plate. Seeds were then stratified at 4° C. for 72 hrs in a dark room prior to relocation into a CER.
The resulting growth plates were monitored daily and allowed to grow in an upright position for up to 14 days post stratification to determine the average root length using ImageJ analysis. Experiments were carried out in triplicates. Results were statistically validated using t-tests employing GraphPad Prism.

Question: `COc1ccc(/C=C2\SC(=O)N(CC(=O)O)C2=O)cc1` [Compound 5, (Z)-2-(5-(4-Methoxybenzylidene)-2,4-dioxothiazolidin-3-yl)acetic Acid] was tested. Which MIC ([1]; Acinetobacter baumannii 17978, replicate 1, read-out: MIC #1) did it give?
Answer: > 64 µg/mL

Question: What about the MIC ([1]; Acinetobacter baumannii 17978, replicate 2, read-out: MIC #2) of the same molecule?
Answer: > 64 µg/mL

Question: What about the MIC ([1]; Acinetobacter baumannii 17978, replicate 3, read-out: MIC #3) of the same molecule?
Answer: > 64 µg/mL

Question: And the MIC (EMRSA-15; EMRSA-15, replicate 1, read-out: MIC #1)?
Answer: > 64 µg/mL

Question: And the MIC (EMRSA-15; EMRSA-15, replicate 2, read-out: MIC #2)?
Answer: > 64 µg/mL

Question: What about the MIC (EMRSA-15; EMRSA-15, replicate 3, read-out: MIC #3) of the same molecule?
Answer: > 64 µg/mL

Question: What about the MIC ([2]; Enterococcus faecalis 12201, replicate 1, read-out: MIC #1) of the same molecule?
Answer: > 64 µg/mL

Question: What about the MIC ([2]; Enterococcus faecalis 12201, replicate 2, read-out: MIC #2) of the same molecule?
Answer: > 64 µg/mL

Question: What about the MIC ([2]; Enterococcus faecalis 12201, replicate 3, read-out: MIC #3) of the same molecule?
Answer: > 64 µg/mL

Question: What about the MIC ([3]; Enterococcus faecium 12204, replicate 1, read-out: MIC #1) of the same molecule?
Answer: > 64 µg/mL

Question: What about the MIC ([3]; Enterococcus faecium 12204, replicate 2, read-out: MIC #2) of the same molecule?
Answer: > 64 µg/mL

Question: What about the MIC ([3]; Enterococcus faecium 12204, replicate 3, read-out: MIC #3) of the same molecule?
Answer: > 64 µg/mL

Question: What about the MIC ([4]; Escherichia coli NCTC12923, replicate 1, read-out: MIC #1) of the same molecule?
Answer: > 64 µg/mL

Question: And the MIC ([4]; Escherichia coli NCTC12923, replicate 2, read-out: MIC #2)?
Answer: > 64 µg/mL

Question: What about the MIC ([4]; Escherichia coli NCTC12923, replicate 3, read-out: MIC #3) of the same molecule?
Answer: > 64 µg/mL

Question: What about the MIC ([5]; Pseudomonas aeruginosa PA01, replicate 1, read-out: MIC #1) of the same molecule?
Answer: > 64 µg/mL

Question: And the MIC ([5]; Pseudomonas aeruginosa PA01, replicate 2, read-out: MIC #2)?
Answer: > 64 µg/mL

Question: And the MIC ([5]; Pseudomonas aeruginosa PA01, replicate 3, read-out: MIC #3)?
Answer: > 64 µg/mL

Question: What about the Normalised root (A. thaliana seedlings; 15.6 μM in GM/MS media) of the same molecule?
Answer: 82.76 and 96.69 and 73.74 and 70.27 and 71.53 and 139.9 and 115.3 and 146.5 and 77.53 and 88.03 and 73.65 and 65.55 and 78.22 and 74.81 and 104.1 and 65.25 and 3.437 and 81.45 and 65.88 and 72.75

Question: And the “Root Length” value (A. thaliana seedlings; 15.6 μM in GM/MS media)?
Answer: 2.769 cm and 3.235 cm and 2.467 cm and 2.351 cm and 2.393 cm and 4.682 cm and 3.856 cm and 4.902 cm and 2.594 cm and 2.945 cm and 2.464 cm and 2.193 cm and 2.617 cm and 2.503 cm and 3.482 cm and 2.183 cm and 0.115 cm and 2.725 cm and 2.204 cm and 2.434 cm

Question: And the Normalised root (A. thaliana seedlings; 31.3 μM in GM/MS media)?
Answer: 88.38 and 1.793 and 71.56 and 59.48 and 79.48 and 5.948

Question: And the “Root Length” value (A. thaliana seedlings; 31.3 μM in GM/MS media)?
Answer: 2.957 cm and 0.06 cm and 2.394 cm and 1.99 cm and 2.659 cm and 0.199 cm

Question: What about the Normalised root (A. thaliana seedlings; 62.5 μM in GM/MS media) of the same molecule?
Answer: 7.413 and 36.02 and 1.315 and 72.21 and 57.81 and 43.67 and 43.88 and 58.91 and 47.85 and 54.64 and 35.81 and 30.88 and 2.78 and 15.18 and 44.24 and 60.59

Question: And the “Root Length” value (A. thaliana seedlings; 62.5 μM in GM/MS media)?
Answer: 0.248 cm and 1.205 cm and 0.044 cm and 2.416 cm and 1.934 cm and 1.461 cm and 1.468 cm and 1.971 cm and 1.601 cm and 1.828 cm and 1.198 cm and 1.033 cm and 0.093 cm and 0.508 cm and 1.48 cm and 2.027 cm

Question: And the Normalised root (A. thaliana seedlings; 125 μM in GM/MS media)?
Answer: 17.75 and 24.42 and 18.71 and 21.94 and 21.31 and 20.59 and 21.58 and 22.78 and 6.905 and 15.15 and 6.636 and 15.69 and 16.44 (2×) and 2.062 and 14.11 and 1.016 and 19.97 and 13.33 and 0.8668

Question: What about the “Root Length” value (A. thaliana seedlings; 125 μM in GM/MS media) of the same molecule?
Answer: 0.594 cm and 0.817 cm and 0.626 cm and 0.734 cm and 0.713 cm and 0.689 cm and 0.722 cm and 0.762 cm and 0.231 cm and 0.507 cm and 0.222 cm and 0.525 cm and 0.55 cm (2×) and 0.069 cm and 0.472 cm and 0.034 cm and 0.668 cm and 0.446 cm and 0.029 cm

Question: What about the Normalised root (A. thaliana seedlings; 250 μM in GM/MS media) of the same molecule?
Answer: 3.019 and 3.856 and 2.63 and 2.989 (2×) and 4.693 and 3.049 and 0.3886 and 5.021 and 2.541 and 2.451 and 12.37 and 5.051 and 4.812 and 3.497 and 2.361 and 1.225 and 2.272 and 0.8668 and 0.4185

Question: What about the “Root Length” value (A. thaliana seedlings; 250 μM in GM/MS media) of the same molecule?
Answer: 0.101 cm and 0.129 cm and 0.088 cm and 0.1 cm (2×) and 0.157 cm and 0.102 cm and 0.013 cm and 0.168 cm and 0.085 cm and 0.082 cm and 0.414 cm and 0.169 cm and 0.161 cm and 0.117 cm and 0.079 cm and 0.041 cm and 0.076 cm and 0.029 cm and 0.014 cm

Question: And the Normalised root (A. thaliana seedlings; 500 μM in GM/MS media)?
Answer: 0.807 and 0.9565 (3×) and 0.5978 and 2.72 and 0.4185 (2×) and 0.7472 and 0.9266 and 0.2391 and 0.3587 and 0.8668 and 1.375 and 1.315 and 3.348 and 1.853 and 0.9864

Question: And the “Root Length” value (A. thaliana seedlings; 500 μM in GM/MS media)?
Answer: 0.027 cm and 0.032 cm (3×) and 0.02 cm and 0.091 cm and 0.014 cm (2×) and 0.025 cm and 0.031 cm and 0.008 cm and 0.012 cm and 0.029 cm and 0.046 cm and 0.044 cm and 0.112 cm and 0.062 cm and 0.033 cm

Question: What about the seedling development (A. thaliana seedlings; concentrations 125 μM and higher) of the same molecule?
Answer: did not develop past the point of hypocotyl formation

Question: What about the “development and growth of A. thaliana (leaves)” value (A. thaliana seedlings; highest concentrations tested) of the same molecule?
Answer: lack of any chlorophyll containing leaves
